In ChEMBL document CHEMBL1201862, “PubChem BioAssay data set” (2004):
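Grown in 96-well plates, cells were treated for 48 hours with each compound at five concentrations. Insufficient inhibition: endpoint recorded as highest concentration tested. At the GI50, growth is halved.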 Active and inactive are the calls of the source. Rule as the data show it: active = GI50 up to about 1.1 µM and inactive = higher.

How the values were obtained:
Assay in all cases: NCI-60 cell line screen, 48 h
EKVX = test system: EKVX
786-0 = test system: 786-0
SW-620 = test system: SW-620
SK-MEL-2 = test system: SK-MEL-2
K562 = test system: K562
Malme-3M = test system: Malme-3M
HOP-92 = test system: HOP-92
UO-31 = test system: UO-31
HL-60 = test system: HL-60
CAKI-1 = test system: CAKI-1
SK-MEL-28 = test system: SK-MEL-28
RXF 393 = test system: RXF 393
XF498 = test system: XF498
KM-20L2 = test system: KM-20L2
SNB-78 = test system: SNB-78
RPMI-8226 = test system: RPMI-8226
HCT-116 = test system: HCT-116
OVCAR-5 = test system: OVCAR-5
IGROV-1 = test system: IGROV-1
M14 = test system: M14
OVCAR-4 = test system: OVCAR-4
SF-539 = test system: SF-539
RXF 631 = test system: RXF 631
SF-295 = test system: SF-295
ACHN = test system: ACHN
HOP-62 = test system: HOP-62
A498 = test system: A498
HOP-18 = test system: HOP-18
SNB-75 = test system: SNB-75
A549 = test system: A549
M19-MEL = test system: M19-MEL
MOLT-4 = test system: MOLT-4
LXFL 529 = test system: LXFL 529
SN12C = test system: SN12C
DMS-273 = test system: DMS-273
SNB-19 = test system: SNB-19
HT-29 = test system: HT-29
DLD-1 = test system: DLD-1
DMS-114 = test system: DMS-114
UACC-257 = test system: UACC-257
HCT-15 = test system: HCT-15
NCI-H23 = test system: NCI-H23
UACC-62 = test system: UACC-62
OVCAR-3 = test system: OVCAR-3
SK-MEL-5 = test system: SK-MEL-5
U-251 = test system: U-251
OVCAR-8 = test system: OVCAR-8
SF-268 = test system: SF-268
NCI-H226 = test system: NCI-H226
KM12 = test system: KM12
HCC 2998 = test system: HCC 2998
SK-OV-3 = test system: SK-OV-3
NCI-H522 = test system: NCI-H522
TK-10 = test system: TK-10
NCI-H460 = test system: NCI-H460
CCRF-CEM = test system: CCRF-CEM
LOX IMVI = test system: LOX IMVI
COLO 205 = test system: COLO 205
SR = test system: SR

N#CNc1nc(C(=O)Nc2ccc(Cl)cc2)cc(-c2ccccc2)n1
GI50 (EKVX): > 100 µM (inactive)
GI50 (786-0): > 100 µM (inactive)
GI50 (SW-620): > 100 µM (inactive)
GI50 (SK-MEL-2): > 100 µM (inactive)
GI50 (K562): > 100 µM (inactive)
GI50 (Malme-3M): > 100 µM (inactive)
GI50 (HOP-92): > 100 µM (inactive)
GI50 (UO-31): > 100 µM (inactive)
GI50 (HL-60): > 100 µM (inactive)
GI50 (CAKI-1): > 100 µM (inactive)
GI50 (SK-MEL-28): > 100 µM (inactive)
GI50 (RXF 393): > 100 µM (inactive)
GI50 (XF498): > 100 µM (inactive)
GI50 (KM-20L2): > 100 µM (inactive)
GI50 (SNB-78): > 100 µM (inactive)
GI50 (RPMI-8226): > 100 µM (inactive)
GI50 (HCT-116): > 100 µM (inactive)
GI50 (OVCAR-5): > 100 µM (inactive)
GI50 (IGROV-1): > 100 µM (inactive)
GI50 (M14): > 100 µM (inactive)
GI50 (OVCAR-4): > 100 µM (inactive)
GI50 (SF-539): > 100 µM (inactive)
GI50 (RXF 631): > 100 µM (inactive)
GI50 (SF-295): > 100 µM (inactive)
GI50 (ACHN): > 100 µM (inactive)
GI50 (HOP-62): > 100 µM (inactive)
GI50 (A498): > 100 µM (inactive)
GI50 (HOP-18): > 100 µM (inactive)
GI50 (SNB-75): > 100 µM (inactive)
GI50 (A549): > 100 µM (inactive)
GI50 (M19-MEL): > 100 µM (inactive)
GI50 (MOLT-4): > 100 µM (inactive)
GI50 (LXFL 529): > 100 µM (inactive)
GI50 (SN12C): > 100 µM (inactive)
GI50 (DMS-273): > 100 µM (inactive)
GI50 (SNB-19): > 100 µM (inactive)
GI50 (HT-29): > 100 µM (inactive)
GI50 (DLD-1): > 100 µM (inactive)
GI50 (DMS-114): > 100 µM (inactive)
GI50 (UACC-257): > 100 µM (inactive)
GI50 (HCT-15): > 100 µM
GI50 (NCI-H23): > 100 µM (inactive)
GI50 (UACC-62): > 100 µM (inactive)
GI50 (OVCAR-3): > 100 µM (inactive)
GI50 (SK-MEL-5): > 100 µM (inactive)
GI50 (U-251): > 100 µM (inactive)
GI50 (OVCAR-8): > 100 µM (inactive)
GI50 (SF-268): > 100 µM (inactive)
GI50 (NCI-H226): > 100 µM (inactive)
GI50 (KM12): > 100 µM (inactive)
GI50 (HCC 2998): > 100 µM (inactive)

Clc1ccc2[nH]c(CCSCCc3nc4ccc(Cl)cc4[nH]3)nc2c1
GI50 (EKVX): 16.9 µM (inactive)
GI50 (786-0): 13.5 µM (inactive)
GI50 (SW-620): 14 µM (inactive)
GI50 (SK-MEL-2): 15.3 µM (inactive)
GI50 (K562): 16.8 µM (inactive)
GI50 (HOP-92): 12.7 µM (inactive)
GI50 (UO-31): 11.4 µM (inactive)
GI50 (HL-60): 0.491 µM (active)
GI50 (CAKI-1): 4.55 µM (inactive)
GI50 (RXF 393): 17.5 µM (inactive)
GI50 (XF498): 14.2 µM (inactive)
GI50 (RPMI-8226): 2.34 µM (inactive)
GI50 (HCT-116): 6.21 µM (inactive)
GI50 (OVCAR-5): 12.4 µM (inactive)
GI50 (IGROV-1): 10.2 µM (inactive)
GI50 (M14): 13 µM (inactive)
GI50 (SK-OV-3): 18.1 µM (inactive)
GI50 (OVCAR-4): 14.2 µM (inactive)
GI50 (SF-539): 16.5 µM (inactive)
GI50 (RXF 631): 6.89 µM (inactive)
GI50 (NCI-H522): 12.2 µM (inactive)
GI50 (SF-295): 7.62 µM (inactive)
GI50 (TK-10): 10.3 µM (inactive)
GI50 (ACHN): 2.25 µM (inactive)
GI50 (NCI-H460): 15.1 µM (inactive)
GI50 (HOP-62): 15.2 µM (inactive)
GI50 (HOP-18): 22.3 µM (inactive)
GI50 (SNB-75): 19.5 µM (inactive)
GI50 (A549): 10 µM (inactive)
GI50 (M19-MEL): 14.4 µM (inactive)
GI50 (MOLT-4): 3.7 µM (inactive)
GI50 (CCRF-CEM): 10.8 µM (inactive)
GI50 (LXFL 529): 6.18 µM (inactive)
GI50 (LOX IMVI): 12.8 µM (inactive)
GI50 (SN12C): 14.4 µM (inactive)
GI50 (COLO 205): 15.4 µM (inactive)
GI50 (DMS-273): 13.4 µM (inactive)
GI50 (HT-29): 11.6 µM (inactive)
GI50 (DLD-1): 15.4 µM (inactive)
GI50 (UACC-257): 12.7 µM (inactive)
GI50 (HCT-15): 13.2 µM
GI50 (NCI-H23): 13.6 µM (inactive)
GI50 (SR): 0.181 µM (active)
GI50 (UACC-62): 5.64 µM (inactive)
GI50 (SK-MEL-5): 5.87 µM (inactive)
GI50 (U-251): 13.4 µM (inactive)
GI50 (OVCAR-8): 14.2 µM (inactive)
GI50 (NCI-H226): 13.4 µM (inactive)
GI50 (KM12): 15.2 µM (inactive)
GI50 (HCC 2998): 15.1 µM (inactive)
